Values quoted from earlier work in patent US12514832B2, “Methods for using low-dose colchicine after myocardial infarction” (INSTITUT DE CARDIOLOGIE DE MONTREAL, priority 2019, dated 2026).

Tests used:
[1] = CIRT; cited from earlier work
interleukin-13 = interleukin-13 (Homo sapiens, UniProt P01584); conditions: CANTOS; cited from earlier work

Compound | effect on cardiovascular outcomes or plasma markers of inflammation (in words) [1] | incidence of fatal infections versus placebo (in words) (interleukin-13)
CN(Cc1cnc2nc(N)nc(N)c2n1)c1ccc(C(=O)N[C@@H](CCC(=O)O)C(=O)O)cc1 [methotrexate] | did not affect cardiovascular outcomes or plasma markers of inflammation | 
canakinumab: injectable monoclonal antibody; anti-inflammatory studied in CANTOS |  | slightly higher incidence of fatal infections
